Source: US20230183237A1, “COMPETITIVE AND NONCOMPETITIVE INHIBITORS OF THE MUSCARINIC ACETYLCHOLINE RECEPTOR M5” (Vanderbilt University, priority 2020, published 2023)
Like-named read-outs stand apart in the source and are kept apart here.

Target: T1, hM5 (Homo sapiens, UniProt P08912)
T1 construct: expressed in transfected cells
T1 sequence (P08912 1-532): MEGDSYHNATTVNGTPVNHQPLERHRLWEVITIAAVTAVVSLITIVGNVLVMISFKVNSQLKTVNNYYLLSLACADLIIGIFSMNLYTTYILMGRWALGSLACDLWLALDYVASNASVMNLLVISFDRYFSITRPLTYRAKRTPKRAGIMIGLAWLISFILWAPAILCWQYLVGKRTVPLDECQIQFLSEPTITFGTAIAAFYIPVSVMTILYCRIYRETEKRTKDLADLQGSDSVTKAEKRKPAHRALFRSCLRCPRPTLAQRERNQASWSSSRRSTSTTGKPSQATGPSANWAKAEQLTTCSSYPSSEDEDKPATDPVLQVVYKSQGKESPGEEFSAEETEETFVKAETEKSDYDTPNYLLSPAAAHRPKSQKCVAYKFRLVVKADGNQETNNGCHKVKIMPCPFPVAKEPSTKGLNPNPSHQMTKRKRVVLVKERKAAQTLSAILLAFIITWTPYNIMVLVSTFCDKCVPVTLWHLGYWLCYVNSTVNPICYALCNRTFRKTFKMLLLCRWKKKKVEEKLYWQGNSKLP
Assay: Calcium mobilization concentration-response (IC50 vs EC80 acetylcholine), CHO hM5
Assay type: cell-based
Conditions: CELL LINE hM5, read-out: IC50
Outline: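 IC50 values derive from percent maximal acetylcholine response after an EC80 ACh addition, measured as kinetic calcium fluorescence (static ratio, max−min). Test compounds were added 140 s before agonist. Cells: stable hM5-CHO in HEPES-buffered HBSS with 2.5 mM probenecid, pH 7.4; ≥3 independent triplicate determinations.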

[1] = calcium mobilization, EC80 acetylcholine addition

SMILES | IC50 [1] | IC50 (vs EC80 acetylcholine)
Cc1nn(C)c(C(F)(F)F)c1S(=O)(=O)N1CCC(c2cn3ncnc3c(F)c2C)CC1 [Compound 266, 6-(1-((1,3-dimethyl-5-(trifluoromethyl)-1H-pyrazol-4-yl)sulfonyl)piperidin-4-yl)-8-fluoro-7-methyl-[1,2,4]triazolo[1,5-a]pyridine] | 284 nM | –
Cc1cc2ncnn2cc1C1CCN(S(=O)(=O)c2cn(-c3ccccc3)nc2C)CC1 [Compound 102, 7-methyl-6-(1-((3-methyl-1-phenyl-1H-pyrazol-4-yl)sulfonyl)piperidin-4-yl)-[1,2,4]triazolo[1,5-a]pyridine] | > 10000 nM | –
Cc1cc2ncnn2cc1C1CCN(S(=O)(=O)c2c(C)nn(C)c2C(F)(F)F)CC1 [Compound 220, 6-(1-((1,3-dimethyl-5-(trifluoromethyl)-1H-pyrazol-4-yl)sulfonyl)piperidin-4-yl)-7-methyl-[1,2,4]triazolo[1,5-a]pyridine] | 38 nM | –
Cc1cn2ncnc2cc1C1CCN(S(=O)(=O)c2cnn(C)c2C)CC1 [Compound 222, 7-(1-((1,5-Dimethyl-1H-pyrazol-4-yl)sulfonyl)piperidin-4-yl)-6-methyl-[1,2,4]triazolo[1,5-a]pyridine] | 276 nM | –
CCc1cc2ncnn2cc1C1CCN(S(=O)(=O)c2cnc(C)n2C)CC1 [Compound 300, 6-(1-((1,2-dimethyl-1H-imidazol-5-yl)sulfonyl)piperidin-4-yl)-7-ethyl-[1,2,4]triazolo[1,5-a]pyridine] | 227 nM | –
O=S(=O)(c1ccc2c(c1)CCO2)N1CCC(c2cn3ncnc3cc2F)CC1 [Compound 105, 6-(1-((2,3-dihydrobenzofuran-5-yl)sulfonyl)piperidin-4-yl)-7-fluoro-[1,2,4]triazolo[1,5-a]pyridine] | 2100 nM | –
Cc1cc2ncnn2nc1C1CCN(S(=O)(=O)c2cnn(C)c2C(F)(F)F)CC1 [Compound 177, 7-methyl-6-(1-((1-methyl-5-(trifluoromethyl)-1H-pyrazol-4-yl)sulfonyl)piperidin-4-yl)-[1,2,4]triazolo[1,5-b]pyridazine] | > 10000 nM | –
Cc1cc2ncnn2cc1C1(F)CCN(S(=O)(=O)c2cnn(C)c2C)CC1 [Compound 173, 6-(1-((1,5-dimethyl-1H-pyrazol-4-yl)sulfonyl)-4-fluoropiperidin-4-yl)-7-methyl-[1,2,4]triazolo[1,5-a]pyridine] | 82 nM | –
Cc1nn(C)cc1S(=O)(=O)N1CCC(c2cn3ncnc3cc2F)CC1 [Compound 108, 6-(1-((1,3-dimethyl-1H-pyrazol-4-yl)sulfonyl)piperidin-4-yl)-7-fluoro-[1,2,4]triazolo[1,5-a]pyridine] | > 10000 nM | –
O=S(=O)(c1ccc2c(c1)CCO2)N1CC=C(c2cc3ncnn3cc2Cl)CC1 [Compound 140, 6-chloro-7-(1-((2,3-dihydrobenzofuran-5-yl)sulfonyl)-1,2,3,6-tetrahydropyridin-4-yl)-[1,2,4]triazolo[1,5-a]pyridine] | > 10000 nM | –
Cc1cc(S(=O)(=O)N2CCC(c3cn4ncnc4cc3C)CC2)c(C)s1 [Compound 145, 6-(1-((2,5-dimethylthiophen-3-yl)sulfonyl)piperidin-4-yl)-7-methyl-[1,2,4]triazolo[1,5-a]pyridine] | 989 nM | –
Cc1cc2ncnn2cc1C1CCN(S(=O)(=O)c2ccc3ncn(C)c3c2)CC1 [Compound 188, 7-methyl-6-(1-((1-methyl-1H-benzo[d]imidazol-6-yl)sulfonyl)piperidin-4-yl)-[1,2,4]triazolo[1,5-a]pyridine] | 105 nM | –
Cc1cc2nccn2nc1C1CCN(S(=O)(=O)c2cnn3c2CCC3)CC1 [Compound 246, 6-(1-((5,6-dihydro-4H-pyrrolo[1,2-b]pyrazol-3-yl)sulfonyl)piperidin-4-yl)-7-methylimidazo[1,2-b]pyridazine] | 17 nM | –
[2H]C([2H])([2H])n1nc(Cl)c(S(=O)(=O)N2CCC(c3cn4ncnc4cc3C)CC2)c1C [Compound 260, 6-(1(3-chloro-5-methyl-1-(methyl-d3-1H-pyrazol-4-yl)sulfonyl)piperidin-4-yl)-7-methyl-[1,2,4]triazolo[1,5-a]pyridine] | 29 nM | –
COc1ccc(S(=O)(=O)N2CCC(c3nn4ccnc4cc3C)CC2)c(C)c1 [Compound 41, 6-(1-((4-methoxy-2-methylphenyl)sulfonyl)piperidin-4-yl)-7-methylimidazo[1,2-b]pyridazine] | > 10000 nM | –

Results, then the compound that gave them:

IC50 [1] | IC50 (vs EC80 acetylcholine) | SMILES
87 nM | – | Cc1c(S(=O)(=O)N2CCC(c3cn4ncnc4cc3F)CC2)c(Cl)nn1C [Compound 329, 6-(1-((3-chloro-1,5-dimethyl-1H-pyrazol-4-yl)sulfonyl)piperidin-4-yl)-7-fluoro-[1,2,4]triazolo[1,5-a]pyridine]
50 nM | – | Cc1c(C2CCN(S(=O)(=O)c3cnc4ccccn34)CC2)cn2ncnc2c1F [Compound 348, 8-fluoro-6-(1-(imidazo[1,2-a]pyridin-3-ylsulfonyl)piperidin-4-yl)-7-methyl-[1,2,4]triazolo[1,5-a]pyridine]
– | 10 nM | [2H]C1([2H])CC(c2cn3ncnc3cc2C)CC([2H])([2H])N1S(=O)(=O)c1cnn(C)c1C#N [Compound 547, 1-methyl-4-((4-(7-methyl-[1,2,4]triazolo[1,5-a]pyridin-6-yl)piperidin-1-yl-2,2,6,6-d4)sulfonyl)-1H-pyrazole-5-carbonitrile]
– | > 10000 nM | Cc1nc2n(c1C1CCN(S(=O)(=O)c3cnn(C)c3CC#N)CC1)CCCC2 [Compound 466, 2-(1-methyl-4-((4-(2-methyl-5,6,7,8-tetrahydroimidazo[1,2-a]pyridin-3-yl)piperidin-1-yl)sulfonyl)-1H-pyrazol-5-yl)acetonitrile]
– | 7300 nM | Cn1ncc(S(=O)(=O)N2CC=C(c3c4ccccc4nn3C)CC2)c1C#N [Compound 490, 1-methyl-4-((4-(2-methyl-2H-indazol-3-yl)-3,6-dihydropyridin-1(2H)-yl)sulfonyl)-1H-pyrazole-5-carbonitrile]
– | 21 nM | Cc1cc(S(=O)(=O)N2CCC(c3cn4ncnc4cc3C(F)F)CC2)sn1 [Compound 494, 5-((4-(7-(difluoromethyl)-[1,2,4]triazolo[1,5-a]pyridin-6-yl)piperidin-1-yl)sulfonyl)-3-methylisothiazole]
– | 63 nM | Cc1c(S(=O)(=O)N2CCC(c3cn4ncnc4cc3C(F)F)CC2)cnn1C [Compound 455, 7-(difluoromethyl)-6-(1-((1,5-dimethyl-1H-pyrazol-4-yl)sulfonyl)piperidin-4-yl)-[1,2,4]triazolo[1,5-a]pyridine]
– | 3140 nM | Cc1ncc(S(=O)(=O)N2CCC(F)(c3cn4ncnc4cc3C)CC2)o1 [Compound 560, 5-((4-fluoro-4-(7-methyl-[1,2,4]triazolo[1,5-a]pyridin-6-yl)piperidin-1-yl)sulfonyl)-2-methyloxazole]
– | 295 nM | Cc1cc(S(=O)(=O)N2CCC(c3cn4ncnc4cc3F)CC2)sn1 [Compound 500, 5-((4-(7-fluoro-[1,2,4]triazolo[1,5-a]pyridin-6-yl)piperidin-1-yl)sulfonyl)-3-methylisothiazole]
– | 14 nM | Cc1cc2ncnn2cc1C1CCN(S(=O)(=O)c2cnc3sccn23)CC1 [Compound 526, 5-((4-(7-methyl-[1,2,4]triazolo[1,5-a]pyridin-6-yl)piperidin-1-yl)sulfonyl)imidazo[2,1-b]thiazole]
– | 15 nM | Cc1cc2ncccc2cc1C1CCN(S(=O)(=O)c2cnn3c2CCC3)CC1 [Compound 444, 6-(1-((5,6-dihydro-pyrrolo[1,2-b]pyrazol-3-yl)sulfonyl)piperidin-4-yl)-7-methylquinoline]
142 nM | – | Cn1ncc(S(=O)(=O)N2CC=C(c3cc4c(cc3Cl)OCO4)CC2)c1Cl [Compound 351, 1-((5-chloro-1-methyl-1H-pyrazol-4-yl)sulfonyl)-4-(6-chlorobenzo[d][1,3]dioxol-5-yl)-1,2,3,6-tetrahydropyridine]
– | 250 nM | Cc1nc2n(c1C1CCN(S(=O)(=O)c3cnn(C)c3Cl)CC1)CCCC2 [Compound 463, 3-(1-((5-Chloro-1-methyl-1H-pyrazol-4-yl)sulfonyl)piperidin-4-yl)-2-methyl-5,6,7,8-tetrahydroimidazo[1,2-a]pyridine]
– | 55 nM | Cc1cc2nccnc2cc1C1CCN(S(=O)(=O)c2cnn(C)c2Cl)CC1 [Compound 424, 6-(1-((5-chloro-1-methyl-1H-pyrazol-4-yl)sulfonyl)piperidin-4-yl)-7-methylquinoxaline]
– | 6 nM | Cc1cc(S(=O)(=O)N2CCC(c3cn4ncnc4cc3Cl)CC2)sn1 [Compound 483, 5-((4-(7-chloro-[1,2,4]triazolo[1,5-a]pyridin-6-yl)piperidin-1-yl)sulfonyl)-3-methylisothiazole]
